Measurements from US20250171438A1 (Agios Pharmaceuticals, Inc., priority 2022, published 2025).

What follows are compounds tested against T1, human PAH with the R408W mutation (Homo sapiens, UniProt P00439, R408W) (assay: Cell Based Phenylalanine Flux Assay). Settings: A375 cells expressing human R408W PAH; 24 hrs compound incubation; 13C-Tyrosine by LC-MS; average where tested multiple times; read-out: AC50.
T1 construct: expressed in transfected cells
T1 sequence (P00439 1-452 R408W): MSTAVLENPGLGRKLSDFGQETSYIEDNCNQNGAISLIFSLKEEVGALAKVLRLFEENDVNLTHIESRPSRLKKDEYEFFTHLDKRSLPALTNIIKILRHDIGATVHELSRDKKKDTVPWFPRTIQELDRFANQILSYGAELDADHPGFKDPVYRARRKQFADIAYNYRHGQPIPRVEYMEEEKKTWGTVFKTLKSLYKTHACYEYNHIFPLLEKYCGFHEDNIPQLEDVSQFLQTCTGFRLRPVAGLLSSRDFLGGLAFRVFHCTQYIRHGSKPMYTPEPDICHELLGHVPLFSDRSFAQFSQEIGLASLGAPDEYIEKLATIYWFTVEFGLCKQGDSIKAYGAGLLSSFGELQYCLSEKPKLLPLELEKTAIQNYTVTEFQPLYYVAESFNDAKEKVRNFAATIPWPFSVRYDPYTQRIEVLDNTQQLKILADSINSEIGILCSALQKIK
Design: scale not given here

| SMILES | AC50 [µM] |
| --- | --- |
| O=C(c1nccs1)N1CCc2[nH]cnc2[C@@H]1c1nc2cccc(Cl)c2[nH]1 [Example 983, (R)-(4-(7-chloro-1H-benzo[d]imidazol-2-yl)-6,7-dihydro-1H-imidazo[4,5-c]pyridin-5(4H)-yl)(thiazol-2-yl)methanone] | > 5 |
| O=C(CC1CC1)N1CCc2[nH]cnc2[C@@H]1c1nc2ccc(F)cc2[nH]1 [Example 963, (R)-2-cyclopropyl-1-(4-(6-fluoro-1H-benzo[d]imidazol-2-yl)-6,7-dihydro-1H-imidazo[4,5-c]pyridin-5(4H)-yl)ethanone] | 1 to 5 |
| Cc1nnc(C(=O)N2CCc3[nH]cnc3[C@@H]2c2nc3ccccc3s2)s1 [Example 1042, (R)-(4-(benzo[d]thiazol-2-yl)-6,7-dihydro-1H-imidazo[4,5-c]pyridin-5(4H)-yl)(5-methyl-1,3,4-thiadiazol-2-yl)methanone] | > 5 |
| CC1(C(=O)N2CCc3[nH]cnc3[C@@H]2c2nc3ccccc3s2)CC1(F)F (single isomer, unassigned) [Example 1290] | > 5 |
| O=C(CC1CC1)N1CCc2[nH]cnc2[C@H]1c1nc2cccc(F)c2s1 [Example 1257, (S)-2-cyclopropyl-1-(4-(7-fluorobenzo[d]thiazol-2-yl)-6,7-dihydro-1H-imidazo[4,5-c]pyridin-5(4H)-yl)ethanone] | < 0.5 |
| C[C@H]1CN(C(=O)c2nnc(-c3ccc(F)cn3)o2)[C@@H](c2nc3ccccc3s2)c2nc[nH]c21 [Example 1755, ((4R,7S)-4-(benzo[d]thiazol-2-yl)-7-methyl-6,7-dihydro-1H-imidazo[4,5-c]pyridin-5(4H)-yl)(5-(5-fluoropyridin-2-yl)-1,3,4-oxadiazol-2-yl)methanone] | > 5 |
| O=C(c1cncs1)N1CCc2[nH]cnc2[C@H]1c1ncc(-c2ccccc2)s1 [Example 2145] | < 0.5 |
| Cc1nc(-c2cnn(C)c2)oc1C(=O)N1CCc2[nH]cnc2[C@H]1c1nc2ccccc2s1 [Example 1376] | < 0.5 |
| O=C(c1nnc(-c2cc[nH]n2)o1)N1CCc2[nH]cnc2[C@@H]1c1nc2c(F)cccc2s1 [Example 1885, (R)-(5-(1H-pyrazol-3-yl)-1,3,4-oxadiazol-2-yl)(4-(4-fluorobenzo[d]thiazol-2-yl)-6,7-dihydro-1H-imidazo[4,5-c]pyridin-5(4H)-yl)methanone] | 1 to 5 |
| O=C(c1cnc(-c2cc(C(F)(F)F)ccn2)s1)N1CCc2[nH]cnc2[C@@H]1c1nc2ccccc2s1 [Example 1358, (R)-(4-(benzo[d]thiazol-2-yl)-6,7-dihydro-1H-imidazo[4,5-c]pyridin-5(4H)-yl)(2-(4-(trifluoromethyl)pyridin-2-yl)thiazol-5-yl)methanone] | 1 to 5 |
| Cc1cccc2sc([C@H]3c4nc[nH]c4CCN3C(=O)c3ncnn3C)nc12 [Example 2016, (R)-(1-methyl-1H-1,2,4-triazol-5-yl)(4-(4-methylbenzo[d]thiazol-2-yl)-6,7-dihydro-1H-imidazo[4,5-c]pyridin-5(4H)-yl)methanone] | > 5 |
| CC(C)(F)c1ncc(C(=O)N2CCc3[nH]cnc3[C@@H]2c2nc3c(F)cccc3s2)o1 [Example 1488, (R)-(4-(4-fluorobenzo[d]thiazol-2-yl)-6,7-dihydro-1H-imidazo[4,5-c]pyridin-5(4H)-yl)(2-(2-fluoropropan-2-yl)oxazol-5-yl)methanone] | 0.5 to 1 |
| COCCn1nccc1C(=O)N1CCc2[nH]cnc2[C@@H]1c1nc2c(F)cccc2s1 [Example 1724, (R)-(4-(4-fluorobenzo[d]thiazol-2-yl)-6,7-dihydro-1H-imidazo[4,5-c]pyridin-5(4H)-yl)(1-(2-methoxyethyl)-1H-pyrazol-5-yl)methanone] | < 0.5 |
| CC[C@H](O)c1nc(C(F)F)c(C(=O)N2CCc3[nH]cnc3[C@@H]2c2nc3c(F)cccc3s2)o1 [Example 2064, (4-(difluoromethyl)-2-((S)-1-hydroxypropyl)oxazol-5-yl)((R)-4-(4-fluorobenzo[d]thiazol-2-yl)-6,7-dihydro-1H-imidazo[4,5-c]pyridin-5(4H)-yl)methanone] | 1 to 5 |
| O=C(c1oc(N2CCOCC2)nc1Br)N1CCc2[nH]cnc2[C@@H]1c1nc2c(F)cccc2s1 [Example 2034, (R)-(4-bromo-2-morpholinooxazol-5-yl)(4-(4-fluorobenzo[d]thiazol-2-yl)-6,7-dihydro-1H-imidazo[4,5-c]pyridin-5(4H)-yl)methanone] | 1 to 5 |
| Cn1nc(C(C)(C)C#N)nc1C(=O)N1CCc2[nH]cnc2[C@@H]1c1nc2c(F)cccc2s1 [Example 2048, (R)-2-(5-(4-(4-fluorobenzo[d]thiazol-2-yl)-4,5,6,7-tetrahydro-1H-imidazo[4,5-c]pyridine-5-carbonyl)-1-methyl-1H-1,2,4-triazol-3-yl)-2-methylpropanenitrile] | 1 to 5 |
| O=C(c1cnn2cc(Cl)ccc12)N1CCc2[nH]cnc2[C@H]1c1nc2c(F)cccc2s1 [Example 1237] | 0.5 to 1 |
| CC(F)c1nc(C(F)F)c(C(=O)N2CCc3[nH]cnc3[C@H]2c2nc3c(F)cccc3s2)o1 (single isomer, unassigned) [Example 2073] | < 0.5 |
| CC(C)(CO)c1nc(C(F)F)c(C(=O)N2CCc3[nH]cnc3[C@H]2c2nc3c(F)cccc3s2)o1 [Example 2071] | < 0.5 |
| O=C(c1cnn2ccc(Br)cc12)N1CCc2[nH]cnc2[C@H]1c1nc2ccc(Br)cc2[nH]1 [Example 997, (S)-(4-(6-bromo-1H-benzo[d]imidazol-2-yl)-6,7-dihydro-1H-imidazo[4,5-c]pyridin-5(4H)-yl)(5-bromopyrazolo[1,5-a]pyridin-3-yl)methanone] | 1 to 5 |
| Cc1c(-c2nnc(C(=O)N3CCc4[nH]cnc4[C@H]3c3nc4ccccc4s3)o2)cnn1C [Example 1845] | < 0.5 |
| O=C(c1cnn2ccc(Br)cc12)N1CCc2[nH]cnc2[C@@H]1c1nc2ccccc2s1 [Example 1048, (R)-(4-(benzo[d]thiazol-2-yl)-6,7-dihydro-1H-imidazo[4,5-c]pyridin-5(4H)-yl)(5-bromopyrazolo[1,5-a]pyridin-3-yl)methanone] | 1 to 5 |
| O=C(c1nncn1C1CC1)N1CCc2[nH]cnc2[C@H]1c1nc2c(F)cccc2s1 [Example 2084] | 0.5 to 1 |
| O=C(c1ncc(Cl)s1)N1CCc2[nH]cnc2[C@@H]1c1nc2ccc(Br)cc2[nH]1 [Example 976, (R)-(4-(6-bromo-1H-benzo[d]imidazol-2-yl)-6,7-dihydro-1H-imidazo[4,5-c]pyridin-5(4H)-yl)(5-chlorothiazol-2-yl)methanone] | > 5 |
| C[C@H]1CN(C(=O)c2nnc(-c3ccccn3)o2)[C@@H](c2nc3ccccc3s2)c2nc[nH]c21 [Example 1590, ((4R,7S)-4-(benzo[d]thiazol-2-yl)-7-methyl-6,7-dihydro-1H-imidazo[4,5-c]pyridin-5(4H)-yl)(5-(pyridin-2-yl)-1,3,4-oxadiazol-2-yl)methanone] | 1 to 5 |
| O=C(c1cnn2ccccc12)N1CCc2[nH]cnc2[C@H]1c1nc2ccccc2[nH]1 [Example 923, (S)-(4-(1H-benzo[d]imidazol-2-yl)-6,7-dihydro-1H-imidazo[4,5-c]pyridin-5(4H)-yl)(pyrazolo[1,5-a]pyridin-3-yl)methanone] | 0.5 to 1 |
| C[C@H](O)c1nc(C(F)F)c(C(=O)N2CCc3[nH]cnc3[C@H]2c2nc3c(F)cccc3s2)o1 [Example 1961, (4-(difluoromethyl)-2-((S)-1-hydroxyethyl)oxazol-5-yl) ((S)-4-(4-fluorobenzo[d]thiazol-2-yl)-6,7-dihydro-1H-imidazo[4,5-c]pyridin-5(4H)-yl)methanone] | < 0.5 |
| Cc1cc(-c2nnc(C(=O)N3CCc4[nH]cnc4[C@H]3c3nc4ccccc4s3)o2)nn1C [Example 1944] | 0.5 to 1 |
| N#Cc1ccn2ncc(C(=O)N3CCc4[nH]cnc4[C@@H]3c3nc4c(F)cccc4s3)c2c1 [Example 1250, (R)-3-(4-(4-fluorobenzo[d]thiazol-2-yl)-4,5,6,7-tetrahydro-1H-imidazo[4,5-c]pyridine-5-carbonyl)pyrazolo[1,5-a]pyridine-5-carbonitrile] | 1 to 5 |

Same assay, conditions: A375 cells expressing human R408W PAH; 24 hrs with compound; 13C-Tyrosine by LC-MS; average where tested multiple times

| SMILES | AC50 |
| --- | --- |
| O=C(c1oc(-c2ccccn2)nc1C(F)(F)F)N1CCc2[nH]cnc2C1c1nc2ccccc2s1 (centres unmarked) | E, E |
| Cn1cc(C(C)(C)C(=O)N2CCc3[nH]cnc3C2c2nc3ccccc3s2)cn1 (centres unmarked) | E, E |

Same assay, conditions: A375 cells expressing human R408W PAH; 24 hrs with compound; 13C-Tyrosine by LC-MS; average where tested multiple times; read-out: AC50

| SMILES | AC50 [µM] |
| --- | --- |
| O=C(C1CN(CC(F)(F)F)C1)N1CCc2[nH]cnc2[C@H]1c1nc2ccccc2s1 (single isomer, unassigned) | 1 to 5 |
| O=C(Cc1cnco1)N1CCc2[nH]cnc2[C@@H]1c1nc2ccccc2s1 (single isomer, unassigned) | > 5 |
| O=C(c1cnc[nH]1)N1CCc2[nH]cnc2C1c1nc2ccccc2[nH]1 (centres unmarked) | > 5 |
| O=C(Nc1ccc(F)cc1)N1CCc2[nH]cnc2C1c1nc2ccccc2s1 (centres unmarked) | 1 to 5 |
| O=C(CCc1nccs1)N1CCc2[nH]cnc2C1c1nc2cc(F)ccc2s1 (centres unmarked) | 1 to 5 |
| O=C(CCc1nccs1)N1CCc2nc[nH]c2C1c1nc2c(Cl)cccc2s1 (centres unmarked) | 1 to 5 |
| Cc1nnc(CC(=O)N2CCc3[nH]cnc3C2c2nc3ccccc3s2)s1 (centres unmarked) | > 5 |
| CC(C)(C)CCC(=O)N1CCc2[nH]cnc2C1c1nc2ccc(F)cc2s1 (centres unmarked) | 1 to 5 |
| O=C(c1nccs1)N1CCc2[nH]cnc2C1c1nc2ccc(Br)cc2s1 (centres unmarked) | 1 to 5 |
| O=C(c1cnn2cc(Cl)ccc12)N1CCc2[nH]cnc2C1c1nc2ccccc2[nH]1 (centres unmarked) | > 5 |
